# Where “and” joins values, the source holds several entries; their conditions need not be identical. Equal values may be shown once.
# Experiments:
# acyl-CoA dehydrogenases = experiment: In vitro acyl-CoA dehydrogenase ferrocenium assay with C. tyrobutyricum cell-free extract; assay type: biochemical; details: 0.5 to 10 mM compound; rate of ferrocenium reduction at 300 nm
# Protocol: Lehman, et al., in An Acyl-Coenzyme A Dehydrogenase Assay Utilizing the Ferricenium Ion, Analytical Biochemistry 186, pages 280-284 (1990), disclose an in vitro assay screening technique for acyl-CoA dehydrogenases for determining enzyme deficiencies in children. An adaptation of this technique was explored as a potential screening method for ascertaining potential butyrogen inhibitors. An aqueous assay liquor is prepared such that each 1 milliliter sample contains 50 mM of TrisHCl buffer (pH 7.6); 0.05 mM of butyryl-CoA; 5 micromoles of FAD (flavin adenine dinucleotide) and 0.4 mM of ferrocenium. Whole cells of C. tyrobutyricum are lysed and are added to the assay liquor. […] The abbreviation mM stands for millimolar. To assure metabolic consistency among the samples a master batch of C. tyrobutyricum is prepared and harvested at the early log growth stage (approximate O.D. of between about 0.5 and 0.7). The master batch fermentation broth is centrifuged and rinsed with 50 mM TrisHCl buffer (pH 7.6), centrifuged and reconstituted with 50 mM TrisHCl buffer (pH 7.6) to be 10 times more concentrated than the original master batch. Aliquots of about 0.5 milliliter are placed into cryogenic vials (about 1.8 milliliter capacity) and frozen at −80° C. until needed. When needed, a vial is placed in an anoxic Coy chamber and allowed to thaw to room temperature. Once thawed, the cells are added to a 15 mL centrifuge tube and diluted with 0.5 mL of a 2 mg/mL solution of lysozyme (purchased from Aldrich) in 50 mM Tris-HCl (final concentration of lysozyme is about 1 mg/mL). The centrifuge tube is inverted 5 times, removed from the Coy chamber and allowed to incubate at 37° C. for 30 minutes. […] The centrifuge tube is vortexed in the Coy chamber for about 30 seconds, removed from the chamber and centrifuged for 15 minutes at 4000 rpm and 4° C. The tube is returned to the chamber and the cell-free extract (supernatant) is used to prepare the above described samples. The samples are analyzed at various times by absorbance spectroscopy at 300 nm using a Thermo Scientific Evolution 300 UV/Vis spectrophotometer with a 7-cuvette carousel and Starna quartz cuvettes with a septum cap to determine the amount of reduction of ferrocenium. The sample is at laboratory temperature and is maintained under anaerobic conditions. Typically, the absorbance is measured over a period of about 10 to 20 minutes which is sufficient time for the absorbance to stop changing. A linear slope of the rate of change in absorbance during the period that the absorbance is changing is determined using Microsoft Excel® 2010 linear regression to generate a straight line from the data points. The more gradual the slope, the better inhibition because the enzyme is slower at reducing the ferrocenium in the assay sample. A dose-response curve is then determined for each compound by plotting the linear slope against the respective compound concentration. A linear slope is then determined for each compound using Microsoft Excel® 2010 linear regression to generate a straight line from the data points. The steeper the dose-response slope, the better the inhibition because the increased concentration of the compound causes more of a difference in enzyme activity. The dose-response slope generally has a broad standard of deviation due to experimental imprecision and slope determinations.
# [1] = system: Clostridium tyrobutyricum; experiment: Serum bottle batch fermentation of Clostridium tyrobutyricum on fructose, optical density; assay type: cell-based; details: duplicates A and B
# Protocol: Ethyl 3-(trifluoromethyl)benzoate is evaluated in a series of batch fermentations to determine the growth response of butyrogens to the presence of this compound at varying concentrations. The batch fermentations are conducted by anoxically filling 100 mL serum bottles with 15 mL of media having the composition given in Tables 12 and 13. About 0.15 mL of a 50% w/w solution of fructose in water (final fructose concentration about 5 g/L) is provided in the bottles. Duplicate runs are conducted for each concentration.
# (§1) Each bottle is inoculated with 1.5 mL of seed culture inoculum of the strict butyrogen Clostridium tyrobutyricum, which has an OD of about 0.40 (which upon a 10 times dilution provides a starting OD for the fermentation of about 0.04). The bottles are maintained at a temperature of 37° C. Two hours after inoculation of the bottles with the bacteria, the compound is added to different bottles as a solution in 50 μL of N-methylpyrrolidone in the amounts indicated in Table 15. The fermentation process is allowed to progress at 37° C. At selected intervals of time, bacterial growth is measured by reading the optical density (OD) of the fermentation liquid. Optical density is measured by anoxically removing an aliquot of fermentation liquid and adding it to a disposable cuvette. OD's ranging between 0.01 and 0.4 are measured directly, while OD's greater than 0.4 are measure after performing a 1/10 dilution with water.
# In this example ethyl 4,4,4-trifluoro-3-(trifluoromethyl)crotonate and ethyl 3-trifluoromethyl-4-methoxybenzoate are evaluated by batch fermentation. The batch fermentations are conducted by anoxically filling 100 mL serum bottles with 15 mL of media having the composition given in Tables 12 and 13. About 0.15 mL of a 50% w/w solution of fructose in water (final fructose concentration about 5 g/L) is provided in the bottles. Duplicate runs are conducted for each concentration.
# as §1, with “of about 0.42 (which upon” for “of about 0.40 (which upon”, “of about 0.042). The bottles” for “of about 0.04). The bottles”, “in Table 16 and 17. The fermentation” for “in Table 15. The fermentation”, “0.4 are measured after performing” for “0.4 are measure after performing”
# [2] = system: Clostridium tyrobutyricum; experiment: Butyric acid by gas chromatography in Clostridium tyrobutyricum batch fermentations; assay type: cell-based; details: 500 ppm; at 11 hours
# Protocol: The concentration of butyric acid is determined by gas chromatography for several of the above samples at the stated points in time. The butyrate production is calculated based upon peak area calculations generated by the gas chromatograph. At 11 hours, the concentration of butyric acid for each of the controls is about 0.95 gram per liter, and the concentration of butyric acid for the samples containing 500 ppm of the inhibitor are about 0.6 gram per liter.
# The concentration of butyric acid is determined by gas chromatography using the procedure set forth in Example 13. The control is reported only in Table 18.
compound,measurement,setting,value
CCOC(=O)c1cccc(C(F)(F)F)c1 [Ethyl 3-trifluormethylbenzoate],Dose-Response Slope,acyl-CoA dehydrogenases,9
same,O.D. Response to Varying Inhibitor Concentrations,"[1]; 500 ppm, 0 Hours, added 2 h after inoculation",0.04
same,O.D. Response to Varying Inhibitor Concentrations,"[1]; 500 ppm, 2 Hours, added 2 h after inoculation",0.09
same,O.D. Response to Varying Inhibitor Concentrations,"[1]; 500 ppm, 3.5 Hours",0.14
same,O.D. Response to Varying Inhibitor Concentrations,"[1]; 500 ppm, 5.25 Hours, listed as Ethyl 3-(trifluoromethyl)benzoate",0.21 and 0.23
same,O.D. Response to Varying Inhibitor Concentrations,"[1]; 500 ppm, 11 Hours, listed as Ethyl 3-(trifluoromethyl)benzoate",0.90 and 0.89
same,O.D. Response to Varying Inhibitor Concentrations,"[1]; 500 ppm, 20.5 Hours, listed as Ethyl 3-(trifluoromethyl)benzoate",1.53 and 1.44
same,O.D. Response to Varying Inhibitor Concentrations,"[1]; 1000 ppm, 0 Hours, added 2 h after inoculation",0.04
same,O.D. Response to Varying Inhibitor Concentrations,"[1]; 1000 ppm, 2 Hours, added 2 h after inoculation",0.09
same,O.D. Response to Varying Inhibitor Concentrations,"[1]; 1000 ppm, 3.5 Hours",0.15
same,O.D. Response to Varying Inhibitor Concentrations,"[1]; 1000 ppm, 5.25 Hours, listed as Ethyl 3-(trifluoromethyl)benzoate",0.21 and 0.22
same,O.D. Response to Varying Inhibitor Concentrations,"[1]; 1000 ppm, 11 Hours, listed as Ethyl 3-(trifluoromethyl)benzoate",0.90 and 0.87
same,O.D. Response to Varying Inhibitor Concentrations,"[1]; 1000 ppm, 20.5 Hours, listed as Ethyl 3-(trifluoromethyl)benzoate",1.42 and 1.37
same,Concentration of butyric acid,[2],about 0.6 gram per liter

# — US20130071897A1, “METHOD FOR CONTROLLING UNDESIRABLE BYPRODUCTS FORMATION CAUSED BY CONTAMINATING ORGANISMS IN THE PRODUCTION OF ETHANOL FROM SYNGAS” (COSKATA, INC., priority 2011, published 2013)
